The values below come from patent publication US8372582B2, “Methods of modulating metabolic memory” (Joslin Diabetes Center, Inc., priority 2006, dated 2013).

Assay [1] has as its system bovine retinal pericytes. Put plainly: HG-induced apoptosis (DNA fragmentation) in cultured retinal pericytes. The format is cell-based. Conditions: for effect on HG-induced apoptosis: pericytes in high glucose (20 mM), agent present with HG; for reversal of apoptosis / effects of HG once established: agent added during LG conditions after HG exposure. The procedure: Cell apoptosis will be evaluated by measurement of DNA fragmentation using cell death detection kit (ROCHE diagnostics). Approximately 15000 cells are seeded in 96-well plates in DMEM with 20% FBS for 18 hours. BRP are starved for 24 hours and then stimulated with either 5.5 or 20 mM of d-glucose for an addition 72 hours. DNA fragmentation is measured in accordance to manufacture's protocol. Increases in caspase 3+9 cleared will also be measured using immunoblot analysis. Measurement of NF-κB activity in cultured cells. Activity of NF-κB will be assessed by a microwell colorimetric assay using the TransAM NFκB transcription factor assay kit (Active Motif, Carlsbad, Calif.) following manufacturer's instruction (Renard et al., Nucleic Acids Res 29, E21 (2001)).
Various potential mechanisms for the metabolic memory process in retinal pericytes were explored in vitro. Cells were culture in high glucose (HG, 20 mM glucose) for about 72 hours, and then for another 24 hours in low glucose (LG, 5.6 mM glucose). This mimics a period of hyperglycemia followed by normoglycemia, a common pattern in diabetics, who often have a period of poorly controlled glycemia before finding a regime that provides better control, thus providing a cultured cell model of metabolic memory.
(§1) The role of p38 MAPK was studied further using SB203580, a specific inhibitor for p38 MAPK a and […] and adenoviral vector of dominant negative p38 MAPKα and β isoforms (Wang et al., J Biol Chem 273, 2161-8 (1998)), either at the same time as starting HG condition or after 3 days of HG when cells are returning to LG condition. In addition, the effects of the antioxidant N-acetylcysteine (NAC) were also evaluated. Activation of p38 MAPK β and δ was evaluated by immunoblotting with anti-phospho p38 MAPK α and δ antibodies.

The test system of assay [2] is p38 MAPK. The assay is described as follows: HG-induced p38 MAPK activation in pericytes (immunoblot). The format is cell-based, bovine. Conditions: high glucose.
Text: In addition to PKC activation, the effect of HG on p38 MAPK activation was also characterized, since PKC δ activation induced by HG can activate p38 MAPK in aortic smooth muscle and renal mesangial cells. […] HG was able to increase the phosphorylation of p38 MAPK by 2-fold in pericytes after three days of exposure (FIG. 4) in parallel with PKC δ activation and increases in apoptosis; no effects on JNK were observed.
as §1

Assay [3] deals with SHP-1. The assay is described as follows: HG-induced SHP-1 expression in pericytes (Western blot). The format is cell-based. Conditions: high glucose. The procedure: (§2) Protein tyrosine phosphatases (PTPs) play a key role in the regulation of receptor tyrosine kinases such as the PDGF-β receptor. Thus, experiments were performed to determine the pathway by which glycemic memory prevented tyrosine phosphorylation of the PDGF-Beta receptor. Cultured pericytes were exposed to either low glucose conditions (˜5.5 mM glucose, LG), high glucose conditions (˜20 mM glucose, HG), or high glucose followed by low glucose (˜20 mM, ±5.5 mM glucose, HG+LG) for 72 hours per exposure. Pericytes were lysed, and lysates were run on an SDS/PAGE gel, then transferred to nitrocellulose for immunoblotting, according to already published procedures. Commercially available antibodies for SHP-1 and another protein tyrosine phosphatase, PTP-1B were used to probe the blot, according to manufacturer's instructions.
On the technique in general: A western blot detects proteins with antibodies after separation by electrophoresis.

In assay [4] the test system is PDGF-Beta receptor. Put plainly: PDGF-BB-induced tyrosine phosphorylation of PDGF-β receptor in HG-treated pericytes (Western blot). The class given is cell-based. The conditions noted are these: high glucose. The procedure: as §2
Cultured pericytes were treated with high glucose (˜20 mM glucose) and subsequently prepared for Western blot analyses as described in Example 2. An antibody directed against phosphorylated PDGF-Beta receptor was used to assess the effects of the HG treatment on receptor phosphorylation levels.

“Also recorded” adds a separate entry of the source.

Regarding “dominant negative form of SHP-1: dominant negative form of SHP-1 (Dubois et al., Nat. Med. 2006); C453S ablates phosphatase activity”, the “effect on HG-induced apoptosis” value in assay [1] is recorded as “reduces HG-induced apoptosis, even in the presence of PDGF”.

As to `CN(C)C[C@@H]1CCn2cc(c3ccccc32)C2=C(C(=O)NC2=O)c2cn(c3ccccc23)CCO1` [RBX], the “effect on HG-induced apoptosis” value in assay [1] is “ineffective”. The “prevention of HG induced p38 MAPK activation” value in assay [2] was “ineffective”.

For `C[S+]([O-])c1ccc(-c2nc(-c3ccncc3)c(-c3ccc(F)cc3)[nH]2)cc1` (stereo not shown) [SB203580], in assay [1], the “reversal of apoptosis / effects of HG once established” value is on record as “not totally effective” and the “effect on HG-induced apoptosis” value is “partly able to prevent; also recorded: prevented apoptosis”. The “effect on HG-induced expression of SHP-1” value in assay [3] is recorded as “prevented”. In addition, in assay [4], the “effect on HG-induced abrogation of PDGF-BB actions” value was “abrogated PDGF-BB actions; also recorded: prevented”. Moreover, the “effect on HG-prevented tyrosine phosphorylation of PDGFR-β induced by PDGF” value in assay [4] (FIG. 16) is recorded as “reversed”.

In the case of `CC(=O)N[C@@H](CS)C(=O)O` [NAC, N-acetylcysteine], in assay [1], the “reversal of apoptosis / effects of HG once established” value is listed as “not totally effective” and the “effect on HG-induced apoptosis” value is “partly able to prevent”.
